Results as given in ChEMBL document CHEMBL1201862, “PubChem BioAssay data set” (2004).
Counter-ions that a name gives are not always drawn.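 Briefly, cells in 96-well plates were exposed to five compound concentrations for 48 h, and endpoints were estimated by linear interpolation. The concentration for 50% growth inhibition is given as GI50.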 Calls of active or inactive are those of the source. Rule as the data show it: active = GI50 up to about 1.1 µM and inactive = higher.

Experiments:
Test in all cases: growth of human tumour cells (NCI), 48 h
SF-268 = tested on: SF-268
SNB-75 = tested on: SNB-75
M14 = tested on: M14
T47D = tested on: T47D
MCF7 = tested on: MCF7
KM12 = tested on: KM12
SN12C = tested on: SN12C
UACC-257 = tested on: UACC-257
OVCAR-4 = tested on: OVCAR-4
Malme-3M = tested on: Malme-3M
UACC-62 = tested on: UACC-62
HCT-15 = tested on: HCT-15
IGROV-1 = tested on: IGROV-1
NCI-H226 = tested on: NCI-H226
SK-OV-3 = tested on: SK-OV-3
HOP-62 = tested on: HOP-62
SF-539 = tested on: SF-539
COLO 205 = tested on: COLO 205
ACHN = tested on: ACHN

SMILES | GI50 (SF-268) | GI50 (SNB-75) | GI50 (M14) | GI50 (T47D) | GI50 (MCF7) | GI50 (KM12) | GI50 (SN12C) | GI50 (UACC-257) | GI50 (OVCAR-4) | GI50 (Malme-3M) | GI50 (UACC-62) | GI50 (HCT-15) | GI50 (IGROV-1) | GI50 (NCI-H226) | GI50 (SK-OV-3) | GI50 (HOP-62) | GI50 (SF-539) | GI50 (COLO 205) | GI50 (ACHN)
CC(=O)SCCC(NC(=S)Nc1ccccc1)P(=O)(Oc1ccccc1)Oc1ccccc1 (centres undefined) | > 100 µM (inactive) | > 100 µM (inactive) | > 100 µM (inactive) | > 100 µM (inactive) | > 100 µM (inactive) | > 100 µM (inactive) | > 100 µM (inactive) | > 100 µM (inactive) | > 100 µM (inactive) | > 100 µM (inactive) | > 100 µM (inactive) | > 100 µM | > 100 µM (inactive) | > 100 µM (inactive) | > 100 µM (inactive) | > 100 µM (inactive) | > 100 µM (inactive) | > 100 µM (inactive) | > 100 µM (inactive)
Cn1c(N)c(/N=N/c2ccc(S(N)(=O)=O)cc2)c(=O)n(C)c1=O | 88.1 µM (inactive) | 22.6 µM (inactive) | > 100 µM (inactive) | > 100 µM (inactive) | > 100 µM (inactive) | > 100 µM (inactive) | > 100 µM (inactive) | > 100 µM (inactive) | > 100 µM (inactive) | > 100 µM (inactive) | 91.8 µM (inactive) | > 100 µM | > 100 µM (inactive) | > 100 µM (inactive) | 79.8 µM (inactive) | 40.9 µM (inactive) | > 100 µM (inactive) | > 100 µM (inactive) | 96.8 µM (inactive)
COc1ccc2nc3cc(Cl)ccc3c(NCCCNCCCNc3c4ccc(Cl)cc4nc4ccc(OC)cc34)c2c1 | 0.0111 µM (active) | 0.0299 µM (active) | 0.0266 µM (active) | 0.0625 µM (active) | 0.012 µM (active) | 0.0208 µM (active) | < 0.01 µM (active) | 0.251 µM (active) | < 0.01 µM (active) | 0.0604 µM (active) | 0.0196 µM (active) | 0.0174 µM | 0.0164 µM (active) | < 0.01 µM (active) | 0.0352 µM (active) | < 0.01 µM (active) | 0.0157 µM (active) | < 0.011 µM (active) | < 0.01 µM (active)
CC1(C)CN=C(Nc2ccc(F)c(F)c2)S1 | > 100 µM (inactive) | > 100 µM (inactive) | > 100 µM (inactive) | > 100 µM (inactive) | > 100 µM (inactive) | > 100 µM (inactive) | > 100 µM (inactive) | > 100 µM (inactive) | > 100 µM (inactive) | > 100 µM (inactive) | > 100 µM (inactive) | > 100 µM | > 100 µM (inactive) | > 100 µM (inactive) | > 100 µM (inactive) | > 100 µM (inactive) | > 100 µM (inactive) | > 100 µM (inactive) | > 100 µM (inactive)
N#C/C(=C(\O)C(=O)O)c1ccc(-c2cccc3ccccc23)cc1 | > 100 µM (inactive) | > 100 µM (inactive) | > 100 µM (inactive) | > 100 µM (inactive) | > 100 µM (inactive) | > 100 µM (inactive) | > 100 µM (inactive) | > 100 µM (inactive) | > 100 µM (inactive) | > 100 µM (inactive) | > 100 µM (inactive) | > 100 µM | > 100 µM (inactive) | > 100 µM (inactive) | > 100 µM (inactive) | > 100 µM (inactive) | > 100 µM (inactive) | > 100 µM (inactive) | > 100 µM (inactive)
BrCCC[P+](c1ccccc1)(c1ccccc1)c1ccccc1 | 16.7 µM (inactive) | 12 µM (inactive) | 11.8 µM (inactive) | 5.85 µM (inactive) | 6.22 µM (inactive) | 5.06 µM (inactive) | 23.1 µM (inactive) | 2.71 µM (inactive) | 31.3 µM (inactive) | 16.2 µM (inactive) | 14 µM (inactive) | > 100 µM | 5.45 µM (inactive) | > 78.7 µM (inactive) | 83.4 µM (inactive) | 11.3 µM (inactive) | 8.47 µM (inactive) | 1.61 µM (inactive) | > 100 µM (inactive)
C[C@]12CC[C@@H]3c4ccc(O)cc4CC[C@H]3[C@@H]1C/C(=C\c1ccc(C#N)cc1)C2=O | 61 µM (inactive) | 94 µM (inactive) | 41.8 µM (inactive) | 46.8 µM (inactive) | 45.5 µM (inactive) | 23.1 µM (inactive) | 68.4 µM (inactive) | 30.8 µM (inactive) | 40.5 µM (inactive) | 28.3 µM (inactive) | 61.1 µM (inactive) | 71.8 µM | 46.1 µM (inactive) | 37.9 µM (inactive) | 57 µM (inactive) | 40.4 µM (inactive) | 36.5 µM (inactive) | 37.2 µM (inactive) | 64 µM (inactive)
CC(SCc1ccccc1)C(=O)O (centres undefined) | > 100 µM (inactive) | > 100 µM (inactive) | > 100 µM (inactive) | > 100 µM (inactive) | > 100 µM (inactive) | > 100 µM (inactive) | > 100 µM (inactive) | > 100 µM (inactive) | > 100 µM (inactive) | > 100 µM (inactive) | > 100 µM (inactive) | > 100 µM | > 100 µM (inactive) | > 100 µM (inactive) | > 100 µM (inactive) | > 100 µM (inactive) | > 100 µM (inactive) | > 100 µM (inactive) | > 100 µM (inactive)
NS(=O)(=O)c1ccc(NCc2cnc3ccccc3n2)cc1 | > 100 µM (inactive) | > 100 µM (inactive) | > 100 µM (inactive) | > 100 µM (inactive) | > 100 µM (inactive) | > 100 µM (inactive) | > 100 µM (inactive) | > 100 µM (inactive) | > 100 µM (inactive) | > 100 µM (inactive) | > 100 µM (inactive) | > 100 µM | > 100 µM (inactive) | > 100 µM (inactive) | > 100 µM (inactive) | > 100 µM (inactive) | > 100 µM (inactive) | > 100 µM (inactive) | > 100 µM (inactive)
C/C(=N\c1ccc(N(C)C)cc1)c1ccccc1 | > 10 µM (inactive) | 22.8 µM (inactive) | 16.3 µM (inactive) | 21.7 µM (inactive) | 21.9 µM (inactive) | 31.8 µM (inactive) | 17.4 µM (inactive) | > 10 µM (inactive) | 25.1 µM (inactive) | 10.9 µM (inactive) | 17.1 µM (inactive) | 18.5 µM | 25.7 µM (inactive) | 76.2 µM (inactive) | > 100 µM (inactive) | 96.2 µM (inactive) | 56 µM (inactive) | 17.8 µM (inactive) | 26.2 µM (inactive)
O=C(Nn1cnn2c(=O)c3ccccc3nc2c1=O)c1ccccc1 | > 100 µM (inactive) | > 100 µM (inactive) | > 100 µM (inactive) | > 100 µM (inactive) | > 100 µM (inactive) | > 100 µM (inactive) | > 100 µM (inactive) | > 100 µM (inactive) | > 100 µM (inactive) | > 100 µM (inactive) | > 100 µM (inactive) | > 100 µM | > 100 µM (inactive) | > 100 µM (inactive) | > 100 µM (inactive) | > 100 µM (inactive) | > 100 µM (inactive) | > 100 µM (inactive) | > 100 µM (inactive)
CN(CCCCN1CCCC1)CCCN(C)C(=O)Cc1ccc(Cl)c(Cl)c1 | 26.7 µM (inactive) | 20.7 µM (inactive) | 17 µM (inactive) | 21 µM (inactive) | 17.4 µM (inactive) | 12.5 µM (inactive) | 17.5 µM (inactive) | 3.29 µM (inactive) | 20 µM (inactive) | 18.8 µM (inactive) | 4.33 µM (inactive) | 27.3 µM | 20.2 µM (inactive) | 26.9 µM (inactive) | 33.3 µM (inactive) | 13.9 µM (inactive) | 7.38 µM (inactive) | 11.9 µM (inactive) | 35.7 µM (inactive)
CCOC(=O)c1c(NC(=O)c2cccs2)sc2c1CCCC2 | 28.1 µM (inactive) | 5.68 µM (inactive) | > 100 µM (inactive) | 30.6 µM (inactive) | > 79.6 µM (inactive) | > 100 µM (inactive) | > 90.4 µM (inactive) | > 100 µM (inactive) | 60.3 µM (inactive) | 29 µM (inactive) | 52.1 µM (inactive) | > 100 µM | 31.3 µM (inactive) | > 38.6 µM (inactive) | 25.5 µM (inactive) | 21.8 µM (inactive) | 24.4 µM (inactive) | > 100 µM (inactive) | > 68.1 µM (inactive)
CC[C@@H]1C(=O)OC[C@@H]1Cc1cncn1C [PILOCARPINE HYDROCHLORIDE] | > 100 µM (inactive) | > 100 µM (inactive) | > 100 µM (inactive) | > 100 µM (inactive) | > 100 µM (inactive) | > 100 µM (inactive) | > 100 µM (inactive) | > 100 µM (inactive) | > 100 µM (inactive) | > 100 µM (inactive) | > 100 µM (inactive) | > 100 µM | > 100 µM (inactive) | > 100 µM (inactive) | > 100 µM (inactive) | > 100 µM (inactive) | > 100 µM (inactive) | > 100 µM (inactive) | > 100 µM (inactive)
COc1ccc(S(=O)(=O)NC(CCC(=O)NC(N)=O)C(=O)NC(N)=O)cc1 (centres undefined) |  | > 100 µM (inactive) | > 100 µM (inactive) | > 100 µM (inactive) | > 100 µM (inactive) | > 100 µM (inactive) | > 100 µM (inactive) | > 100 µM (inactive) | > 100 µM (inactive) | > 100 µM (inactive) | > 100 µM (inactive) | > 100 µM | > 100 µM (inactive) | > 100 µM (inactive) | > 100 µM (inactive) | > 100 µM (inactive) | > 100 µM (inactive) | > 100 µM (inactive) | > 100 µM (inactive)
